Measured values from patent US10381110B2, “Molecules” (University of Dundee, priority 2010, dated 2019).

What was measured:
dopamine D4 [1] = target: T1, dopamine D4 (Homo sapiens, UniProt P21917); settings: previously reported analogue; read-out: dopamine D4 Ki (literature); cited from earlier work
T1 sequence (P21917 1-419): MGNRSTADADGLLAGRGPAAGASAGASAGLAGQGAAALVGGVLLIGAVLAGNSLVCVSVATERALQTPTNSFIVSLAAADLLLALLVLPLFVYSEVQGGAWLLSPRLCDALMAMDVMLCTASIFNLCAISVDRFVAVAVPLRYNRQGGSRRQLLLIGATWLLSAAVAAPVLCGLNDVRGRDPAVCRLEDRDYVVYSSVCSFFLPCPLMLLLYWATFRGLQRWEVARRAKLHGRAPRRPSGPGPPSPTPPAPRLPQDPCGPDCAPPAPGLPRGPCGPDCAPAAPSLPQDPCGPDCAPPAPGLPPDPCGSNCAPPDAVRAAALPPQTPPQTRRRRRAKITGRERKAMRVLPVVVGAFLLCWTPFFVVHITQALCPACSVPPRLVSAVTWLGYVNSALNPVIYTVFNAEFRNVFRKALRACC

dopamine D2 [2] = target: T2, dopamine D2 (Homo sapiens, UniProt P14416); settings: read-out: dopamine D2 Ki (literature); previously assayed analogue; cited from earlier work
Target sequence in this assay (P14416 whole entry): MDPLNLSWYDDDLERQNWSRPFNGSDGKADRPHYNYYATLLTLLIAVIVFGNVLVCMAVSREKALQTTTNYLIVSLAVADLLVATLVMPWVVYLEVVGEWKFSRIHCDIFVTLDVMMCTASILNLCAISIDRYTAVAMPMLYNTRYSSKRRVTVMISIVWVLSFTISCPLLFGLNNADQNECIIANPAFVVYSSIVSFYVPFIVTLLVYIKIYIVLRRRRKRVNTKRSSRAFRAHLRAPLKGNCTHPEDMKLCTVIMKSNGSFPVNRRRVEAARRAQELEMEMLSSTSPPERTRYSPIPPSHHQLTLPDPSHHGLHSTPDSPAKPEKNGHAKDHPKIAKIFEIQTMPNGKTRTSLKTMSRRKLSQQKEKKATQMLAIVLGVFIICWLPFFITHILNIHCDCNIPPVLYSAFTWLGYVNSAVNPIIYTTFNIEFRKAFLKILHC

5HT1a = target: T3, 5HT1a (Homo sapiens, UniProt P08908); assay: Secondary radioligand binding assay (Ki)
T3 sequence (P08908 1-422): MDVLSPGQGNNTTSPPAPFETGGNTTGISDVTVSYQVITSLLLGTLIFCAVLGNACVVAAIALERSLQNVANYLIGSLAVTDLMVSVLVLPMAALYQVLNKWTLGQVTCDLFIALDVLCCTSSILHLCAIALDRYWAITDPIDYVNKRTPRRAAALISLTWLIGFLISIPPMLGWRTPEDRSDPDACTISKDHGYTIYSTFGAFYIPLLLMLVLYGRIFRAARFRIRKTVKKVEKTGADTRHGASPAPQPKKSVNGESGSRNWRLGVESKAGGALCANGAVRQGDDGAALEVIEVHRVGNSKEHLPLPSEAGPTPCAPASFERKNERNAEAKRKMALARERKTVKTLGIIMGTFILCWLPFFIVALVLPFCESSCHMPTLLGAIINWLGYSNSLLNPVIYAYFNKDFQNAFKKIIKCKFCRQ
Experimental: (§1) Assay Buffer: Standard Binding Buffer (50 mM Tris-HCl, 10 mM MgCl2, 1 mM EDTA, pH 7.4)
(§2) Membrane Fraction Source: Transiently or stably transfected cell lines (e.g., HEK293, COS, CHO, NIH3T3)
(§3) Radioligand is diluted to five times the assay concentration (see Table 18) in Standard Binding Buffer. Typically, the assay concentration of radioligand is a value between one half the KD and the KD of a particular radioligand at its target. 50 μl aliquots of radioligand are dispensed into the wells of a 96-well plate containing 100 μl of Standard Binding Buffer. Then, duplicate 50 μl aliquots of the test and reference compound dilutions are added.
(§4) The 250 μl reactions are incubated at room temperature and shielded from light (to prevent photolysis of light-sensitive ligands) for 1.5 hours, then harvested by rapid filtration onto Whatman GF/B glass fiber filters pre-soaked with 0.3% polyethyleneimine using a 96-well Brandel harverster. Four rapid 500 μl washes are performed with chilled Standard Binding Buffer to reduce non-specific binding. Filters are placed in 6 ml scintillation tubes and allowed to dry overnight. The next day, 4 ml of EcoScint scintillation cocktail (National Diagnostics) are added to each tube. The tubes are capped, labeled, and counted by liquid scintillation counting. […] The filter mats are dried, then scintillant is melted onto the filters and the radioactivity retained on the filters is counted in a Microbeta scintillation counter.
(§5) Raw data (dpm) representing total radioligand binding (i.e. specific+non-specific binding) are plotted as a function of the logarithm of the molar concentration of the competitor (i.e. test or reference compound).

α1A (Alpha1A) = target: T4, α1A (Alpha1A) (Homo sapiens, UniProt P35348); assay: Secondary radioligand binding assay (Ki)
T4 sequence (P35348 1-466): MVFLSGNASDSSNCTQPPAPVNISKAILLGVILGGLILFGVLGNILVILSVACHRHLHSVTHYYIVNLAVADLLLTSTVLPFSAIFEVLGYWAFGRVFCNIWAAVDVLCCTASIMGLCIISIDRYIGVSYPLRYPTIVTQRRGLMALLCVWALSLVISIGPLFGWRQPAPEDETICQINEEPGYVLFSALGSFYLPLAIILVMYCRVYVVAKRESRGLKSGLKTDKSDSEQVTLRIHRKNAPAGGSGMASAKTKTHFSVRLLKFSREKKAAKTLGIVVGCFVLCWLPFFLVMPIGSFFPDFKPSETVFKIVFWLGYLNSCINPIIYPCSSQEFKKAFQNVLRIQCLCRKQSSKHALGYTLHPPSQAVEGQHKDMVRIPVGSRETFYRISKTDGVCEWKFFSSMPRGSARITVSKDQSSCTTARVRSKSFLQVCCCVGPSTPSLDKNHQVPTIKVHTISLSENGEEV
Experimental: as §3, §4, §5
Adrenergic Receptors: α1A, α1B, α2A, α2B, α2C, β1, β2, β3
Membrane Fraction Source: Transiently or stably transfected cell lines (e.g. HEK293, COS, CHO, NIH3T3)
The method is carried out in the manner described for the serotonin receptor assay above, except where described below. Eleven dilutions (5× assay concentration) of the test and reference (see Table 20) compounds are prepared in the appropriate buffer by serial dilution, as previously described. Radioligand is diluted to five times the assay concentration (see Table 21) in the appropriate buffer.
The 250 μl reactions are incubated at room temperature and shielded from light (to prevent photolysis of light-sensitive ligands) for 1 hour (for α1 receptors, 40 min for α2 receptors, and 1.5 hours for β receptors), then harvested by rapid filtration onto Whatman GF/B glass fiber filters pre-soaked with 0.3% polyethyleneimine using a 96-well Brandel harverster. Four rapid 500-μl washes are performed with chilled distilled water (for α1 and β receptors) or 0.1% polyethyleneimine (for α2 receptors) to reduce non-specific binding. Filters are placed in 6 ml scintillation tubes and allowed to dry overnight and the samples are treated to obtain data as described above.

5-HT2B = 5-HT2B (Homo sapiens, UniProt P41595); assay: Secondary radioligand binding assay (Ki)
Experimental: as §1, §2, §3, §4, §5

5-HT7 = 5-HT7 (Homo sapiens, UniProt P34969); assay: Secondary radioligand binding assay (Ki)
Experimental: as §1, §2, §3, §4, §5

Alpha1A = target: T5, Alpha1A (Homo sapiens, UniProt P35348); assay: Primary radioligand binding assay (NIMH PDSP); settings: primary radiobinding assay, [3H]Prazosin; further: test concentration or dose not given here
T5 sequence (P35348 1-466): T4 sequence (P35348 1-466)

Alpha1B = target: T6, Alpha1B (Homo sapiens, UniProt P35368); assay: Primary radioligand binding assay (NIMH PDSP); settings: primary radiobinding assay, [3H]Prazosin; further: test concentration or dose not given here
T6 sequence (P35368 1-520): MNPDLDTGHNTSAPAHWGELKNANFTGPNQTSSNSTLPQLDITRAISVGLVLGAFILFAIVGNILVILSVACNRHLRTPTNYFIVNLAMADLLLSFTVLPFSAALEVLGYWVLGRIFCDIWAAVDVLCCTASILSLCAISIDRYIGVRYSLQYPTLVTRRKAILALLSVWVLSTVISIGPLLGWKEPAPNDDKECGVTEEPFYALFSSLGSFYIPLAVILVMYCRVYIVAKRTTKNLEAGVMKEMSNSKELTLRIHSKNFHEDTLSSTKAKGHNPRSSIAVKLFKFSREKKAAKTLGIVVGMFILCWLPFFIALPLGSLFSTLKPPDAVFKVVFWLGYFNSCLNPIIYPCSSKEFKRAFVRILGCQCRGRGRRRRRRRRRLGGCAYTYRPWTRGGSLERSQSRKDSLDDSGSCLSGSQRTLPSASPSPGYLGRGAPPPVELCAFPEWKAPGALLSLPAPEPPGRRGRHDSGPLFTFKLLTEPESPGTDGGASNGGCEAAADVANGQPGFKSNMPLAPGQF

Alpha1D = target: T7, Alpha1D (Homo sapiens, UniProt P25100); assay: Primary radioligand binding assay (NIMH PDSP); settings: primary radiobinding assay, [3H]Prazosin
T7 sequence (P25100 1-572): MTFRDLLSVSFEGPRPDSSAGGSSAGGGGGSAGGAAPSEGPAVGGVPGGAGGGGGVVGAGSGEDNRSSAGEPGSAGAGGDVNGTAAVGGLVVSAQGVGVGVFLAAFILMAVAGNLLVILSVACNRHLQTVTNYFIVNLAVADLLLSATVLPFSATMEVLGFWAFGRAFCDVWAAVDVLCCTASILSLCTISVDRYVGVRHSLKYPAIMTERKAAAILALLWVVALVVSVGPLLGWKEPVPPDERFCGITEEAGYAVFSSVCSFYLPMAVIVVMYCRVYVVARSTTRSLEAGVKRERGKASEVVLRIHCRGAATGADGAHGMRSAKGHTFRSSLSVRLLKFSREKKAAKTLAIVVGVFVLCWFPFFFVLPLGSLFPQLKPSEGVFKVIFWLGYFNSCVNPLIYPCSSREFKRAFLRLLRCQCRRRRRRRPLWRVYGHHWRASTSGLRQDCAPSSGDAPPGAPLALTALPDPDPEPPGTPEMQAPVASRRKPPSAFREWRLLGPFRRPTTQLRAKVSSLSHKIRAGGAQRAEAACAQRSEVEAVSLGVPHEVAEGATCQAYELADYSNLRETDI

dopamine D1 = dopamine D1 (Homo sapiens, UniProt P21728); assay: Primary radioligand binding assay (NIMH PDSP); settings: primary radiobinding assay, [3H]SCH233930; further: test concentration or dose not given here
dopamine D2 [3] = target: T2, dopamine D2; assay: Primary radioligand binding assay (NIMH PDSP); settings: primary radiobinding assay, [3H]N-methylspiperone; on D4 (% inh): test concentration or dose not given here
Target sequence in this assay (P14416 whole entry, species assumed): as the sequence (P14416 whole entry) above

dopamine D3 = dopamine D3 (Homo sapiens, UniProt P35462); assay: Primary radioligand binding assay (NIMH PDSP); settings: primary radiobinding assay, N-methylspiperone; further: test concentration or dose not given here
dopamine D5 = dopamine D5 (Homo sapiens, UniProt P21918); assay: Primary radioligand binding assay (NIMH PDSP); settings: primary radiobinding assay, [3H]SCH233930; further: test concentration or dose not given here
dopamine D4 [4] = target: T1, dopamine D4; assay: Primary radioligand binding assay (NIMH PDSP); settings: primary radiobinding assay, N-methylspiperone; on D4 (% inh): test concentration or dose not given here

Sequence of dopamine D1 (P21728 whole entry): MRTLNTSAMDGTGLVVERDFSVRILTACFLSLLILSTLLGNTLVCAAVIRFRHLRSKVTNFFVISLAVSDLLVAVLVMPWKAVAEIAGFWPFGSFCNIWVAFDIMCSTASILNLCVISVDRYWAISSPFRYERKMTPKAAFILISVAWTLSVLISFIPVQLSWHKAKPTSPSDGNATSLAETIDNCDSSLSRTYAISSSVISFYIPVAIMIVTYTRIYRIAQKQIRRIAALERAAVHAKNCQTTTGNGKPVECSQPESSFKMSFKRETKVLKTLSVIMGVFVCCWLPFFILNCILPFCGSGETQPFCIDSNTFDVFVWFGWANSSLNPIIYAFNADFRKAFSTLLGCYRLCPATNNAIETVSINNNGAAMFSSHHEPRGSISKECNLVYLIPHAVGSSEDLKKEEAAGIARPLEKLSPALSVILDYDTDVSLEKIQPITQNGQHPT
Sequence of 5-HT7 (P34969 whole entry, species assumed): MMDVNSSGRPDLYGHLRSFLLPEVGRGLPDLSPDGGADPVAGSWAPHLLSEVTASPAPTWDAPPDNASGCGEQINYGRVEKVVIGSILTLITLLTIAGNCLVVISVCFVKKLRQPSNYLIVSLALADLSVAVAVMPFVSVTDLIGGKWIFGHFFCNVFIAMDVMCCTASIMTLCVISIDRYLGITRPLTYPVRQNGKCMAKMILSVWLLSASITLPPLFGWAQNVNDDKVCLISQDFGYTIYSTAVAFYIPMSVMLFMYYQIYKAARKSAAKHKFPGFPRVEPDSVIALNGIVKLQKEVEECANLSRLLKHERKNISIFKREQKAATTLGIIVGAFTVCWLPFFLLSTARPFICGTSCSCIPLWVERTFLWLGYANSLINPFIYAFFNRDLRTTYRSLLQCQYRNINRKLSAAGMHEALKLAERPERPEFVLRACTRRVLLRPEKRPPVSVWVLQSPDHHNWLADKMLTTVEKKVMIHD
Sequence of dopamine D3 (P35462 whole entry): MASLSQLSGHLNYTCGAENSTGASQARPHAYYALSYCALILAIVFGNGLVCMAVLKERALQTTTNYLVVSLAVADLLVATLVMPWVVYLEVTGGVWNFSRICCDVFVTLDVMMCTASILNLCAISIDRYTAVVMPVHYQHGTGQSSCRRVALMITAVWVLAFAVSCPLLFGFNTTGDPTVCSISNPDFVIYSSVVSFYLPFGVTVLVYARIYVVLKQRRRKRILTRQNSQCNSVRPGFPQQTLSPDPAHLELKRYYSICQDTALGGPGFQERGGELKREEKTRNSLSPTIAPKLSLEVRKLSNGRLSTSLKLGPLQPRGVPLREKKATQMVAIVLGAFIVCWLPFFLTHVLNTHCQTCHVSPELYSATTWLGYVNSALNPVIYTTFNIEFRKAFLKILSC
Sequence of dopamine D5 (P21918 whole entry): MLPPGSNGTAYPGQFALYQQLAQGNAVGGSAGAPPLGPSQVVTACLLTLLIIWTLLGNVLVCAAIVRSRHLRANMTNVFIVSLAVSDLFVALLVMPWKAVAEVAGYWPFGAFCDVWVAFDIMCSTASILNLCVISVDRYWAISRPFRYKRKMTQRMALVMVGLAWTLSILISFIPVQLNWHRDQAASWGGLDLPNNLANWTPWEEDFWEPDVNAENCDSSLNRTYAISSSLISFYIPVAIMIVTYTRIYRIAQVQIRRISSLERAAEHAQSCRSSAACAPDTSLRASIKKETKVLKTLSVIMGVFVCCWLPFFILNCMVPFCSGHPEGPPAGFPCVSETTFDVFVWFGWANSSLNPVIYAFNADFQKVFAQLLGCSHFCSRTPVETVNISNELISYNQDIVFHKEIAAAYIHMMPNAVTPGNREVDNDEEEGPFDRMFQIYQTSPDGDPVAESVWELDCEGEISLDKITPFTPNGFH
Sequence of 5-HT2B (P41595 whole entry, species assumed): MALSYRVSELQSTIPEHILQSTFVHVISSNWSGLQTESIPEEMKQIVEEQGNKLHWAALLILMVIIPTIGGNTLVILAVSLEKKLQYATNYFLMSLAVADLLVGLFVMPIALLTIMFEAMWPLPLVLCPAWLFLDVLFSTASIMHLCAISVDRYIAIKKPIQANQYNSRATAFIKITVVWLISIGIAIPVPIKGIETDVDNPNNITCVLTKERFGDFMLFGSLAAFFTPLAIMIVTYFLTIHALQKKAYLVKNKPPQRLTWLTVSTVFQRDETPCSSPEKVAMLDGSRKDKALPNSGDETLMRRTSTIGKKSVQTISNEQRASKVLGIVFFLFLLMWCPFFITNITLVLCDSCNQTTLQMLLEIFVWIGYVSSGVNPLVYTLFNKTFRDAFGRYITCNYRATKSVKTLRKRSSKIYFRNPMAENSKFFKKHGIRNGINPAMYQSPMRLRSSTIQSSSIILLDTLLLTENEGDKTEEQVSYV

Row | SMILES | Ki (dopamine D4 [1]) [µM] | Ki (dopamine D2 [2]) [µM] | Ki (5HT1a) [µM] | Ki (α1A (Alpha1A)) [µM] | Ki (5-HT2B) [µM] | Ki (5-HT7) [µM] | Alpha1A (% inh) (Alpha1A) | Alpha1B (% inh) (Alpha1B) | Alpha1D (% inh) (Alpha1D) | D1 (% inh) (dopamine D1) | D2 (% inh) (dopamine D2 [3]) | D3 (% inh) (dopamine D3) | D5 (% inh) (dopamine D5) | D4 (% inh) (dopamine D4 [4])
1 | O=C1c2ccccc2CN1CCCCN1CCN(c2ccccc2)CC1 [2-(4-(4-Phenyl-1-piperazinyl)butyl)-1-isoindolinone] | 0.134 | 0.319 |  |  |  |  |  |  |  |  |  |  |  | 
2 | CC1Cc2ccccc2N1C(=O)CN1CCN(c2ccccc2)CC1 (stereo not drawn) [STT-00185641] |  |  | 8.43 | 2.01 | 1.45 | 2.82 | 64.8 | −19.8 | 31.1 | −1 | 2 | 51 | 18 | 
3 | COc1cc2c(cc1OC)C(=O)C(CC1CCN(Cc3ccccc3)CC1)C2 (stereo not drawn) [donepezil, reference compound] |  |  |  |  |  |  |  |  |  |  | 18.6 |  |  | 89.2
